Laboratory results from patent publication US11612606B2, “8-aminoisoquinoline compounds and uses thereof” (priority 2018, dated 2023).
Like-named read-outs stand apart in the source and are kept apart here.

Columns and labels:
[1] = target: HPK full length, T165E S171E (Homo sapiens (Human), UniProt Q92918, S171E/T165E); test: HPK1-FL HTRF enzymatic assay ("HTRF"); assay type: biochemical; conditions: ATP 1 mM
In short: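 Full-length HPK1 (T165E/S171E) was preincubated 30 min with compound, then reacted 60 min with biotin-SLP-76 and 1 mM ATP. Phospho-SLP-76 was detected by HTRF (Eu-anti-pSLP76 antibody, SA-XL665) after a further 60 min.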

[2] = test system: primary human pan T cells; test: Human T-cell IL2 induction assay; assay type: cell-based
Experimental: Assay Principle: Anti-CD3 and anti-CD28 activates TCR signaling in primary human pan T cells leading to IL-2 promoter induction. Secreted IL-2 in cell culture supernatant is detected by electrochemiluminescence using a capture antibody against IL-2 and an anti-IL-2 antibody labeled with SULFO-tag. Also see www.mesoscale.com for additional electrochemiluminescence technology information.
Assay Procedure: Incubate primary human pan T cells with varying concentrations of test compounds for 30 minutes in a humidified incubator at 37° C. and 5% CO2. Transfer cells to a plate pre-coated with a fixed concentration of anti-human CD3 (determined separately for each donor lot) and add soluble anti-human CD28 (final concentration=1 μg/ml). Stimulate cells in a humidified incubator at 37° C. and 5% CO2 for 4 hours. Transfer 25 μl of supernatant to a MSD single spot plate pre-coated with an anti-human IL-2 antibody. Incubate MSD plate overnight at 4° C. with gentle shaking. Wash MSD plate 4× with wash buffer. Add SULFO-tagged detection antibody at a 1:50 dilution and incubate at room temperature shaking for 2 hours. Wash MSD plate 4× with wash buffer and add 150 μl 2×MSD read buffer. Read on an MSD instrument. Normalize data to stimulated/untreated controls to calculate % activity at each concentration of compound.
Instrumentation: • Biomek FX for liquid handling (Beckman Coulter) • MSD SECTOR S 600 (Meso Scale Discovery)
Exemplary compounds of Formula (I) were tested in the human T-cell IL-2 induction assays.

[3] = test system: phosphorylation of SLP-76 (S376) by HPK-1 in human Jurkat cells; test: pSLP76 assay (sandwich ELISA, anti-CD3 stimulated Jurkat cells); assay type: cell-based; conditions: Homo sapiens, read-out: pSLP76 IC50
Experimental: Phospho-SLP76 (S376) is detected by sandwich ELISA using an anti-pSLP76(S376) capture antibody and a biotinylated anti-SLP76 detection antibody.
Incubate Jurkat cells with varying concentrations of test compounds for 30 minutes in a humidified incubator at 37° C. and 5% CO2. Add anti-CD3 DynaBeads at a 4:1 bead:cell ratio. Stimulate cells in a humidified incubator at 37° C. and 5% CO2 for 10 minutes. Add cold lysis buffer and incubate on a shaker at 4° C. for 30 minutes. Transfer cell lysates to a pre-blocked ELISA plate coated with capture antibody. Incubate at room temperature shaking for 2 hours. Wash ELISA plate 5× with wash buffer and add 25 μl of biotinylated detection antibody at a final concentration of 0.5 μg/ml. Incubate at room temperature shaking for 1 hour. Wash ELISA plate 5× with wash buffer and add 25 μl of streptavidin enzyme conjugate at a final dilution of 1:8000. Incubate at room temperature shaking for 20 minutes. Wash ELISA plate 5× with wash buffer and add 25 μl of TMB substrate solution. Incubate at room temperature in the dark shaking for 20 minutes. Add 25 μl of STOP solution and read on SoftMax Pro for absorbance at 450 nm.
Exemplary compounds of Formula (I) were tested in pSLP76 assays.

[4] = Permeability assay in gMDCKI cells; assay type: in vitro ADME, canine; conditions: dog, MDCK, apical-to-basolateral, 2-hour incubation, read-out: MDCK AB Papp
Experimental: Cell permeability of compounds of interest was assessed in the gMDCKI cell line, which is a modified MDCKI (Madin-Darby canine kidney) originally acquired from American Type Culture Collection (Manassa, Va.) and generated at Genentech. […] Test article was tested at 10 μM in the apical-to-basolateral (A-B) and basolateral-to-apical (B-A) directions. Test compound was dissolved in transport buffer consisting of Hank's balanced salt solution and […] (Invitrogen Corporation, Grand Island, N.Y.). Transepithelial electrical resistance (TEER) and lucifer yellow (LY) permeability were used to monitor monolayer integrity at the beginning and the end of the experiments, respectively. Test articles were analyzed by LC-MS/MS.
The efflux ratio (ER) is calculated as (Papp, B−A/Papp, A−B).
Cell permeability were assessed for exemplary compounds of Formula (I).

[5] = Hepatocyte stability assay; assay type: in vitro ADME; conditions: cryopreserved human hepatocytes (10 donor pool, suspension), scaled hepatic clearance, read-out: HHep Clearance
Experimental: Metabolic stability of compounds are assessed using a hepatocyte stability assay. Cryopreserved human hepatocytes from a 10 donor pool are quickly thawed at 37° C., suspended in prewarmed In VitroGRO™ HT Medium, and then centrifuged at 100×g at room temperature for 10 min. The supernatants are discarded, and cells are resuspended in 5 mL Dulbecco's Modified Eagle Medium (DMEM) medium. Cell viability in suspension is counted on a Hepatometer® Vision (Lonza, N.C.), and viable cells are then adjusted to […] in DMEM. Compounds are first diluted to 2 μM with DMEM medium, and then aliquots of 125 μL of drug-containing medium are transferred to 96-well non-coated plates. Incubation is initiated by the addition of 125 μL of hepatocyte suspension to yield a total incubation volume of 250 μL. Final concentration of each compound is 1 μM, and final cell density is 0.5×10^6 cells/mL. Incubations are conducted in a humidified incubator at 37° C. Aliquots of 50 μL incubation medium are taken out at different time intervals (0, 60, 120 and 180 min), and immediately mixed with 100 μL of ice-cold acetonitrile containing 50 nM propranolol (internal standard). Samples are then centrifuged at 10,000×g for 10 min, and 80 μL of supernatant is taken out and diluted with 160 μL of water prior to LC/MS-MS analysis.
Human hepatocyte stability was assessed for exemplary compounds of Formula (I) according to the above procedures.

[6] = Pharmacokinetic study in rat; assay type: in vivo, Sprague Dawley rat; conditions: male, Sprague Dawley
Experimental: Pharmacokinetic Study in Rat: Male Sprague Dawley rats obtained from Lingchang/Vital River Laboratory Animal Technology Co., Ltd., (Shanghai/Beijing, P.R. China) with body weight ranging between 200 g to 300 g were use in the PK studies. Group of 3 rats were given a 1 mg/kg intravenous bolus (IV) dose of the test article in solution formulation, and another group of 3 rats were given a 2 or 5 mg/kg oral (PO) dose of test article as a 0.5% methylcellulose with 0.2% Tween 80 (MCT) suspension or as a solution. Blood samples (250 μL, per time point) were collected serially via the catheter in femoral artery at 0.033, 0.083, 0.25, 0.5, 1, 2, 4, 6, and 8 hours after IV or PO administration from each of the rat. Blood samples were collected into pre-chilled tubes containing Potassium (K2) EDTA and centrifuged at 3,200 g for 10 minutes at 2 to 8° C. within 1 hour of collection to harvest plasma. Plasma samples were stored at −70° C. until LC/MS/MS analysis. Concentration in each plasma sample was determined by a non-validated LC/MS/MS. Data is acquired using multiple reaction monitoring (MRM) with specific transitions monitored for each compound.
Following PO administration, percent bioavailability (% F) was determined for each animal by dividing the dose normalized area under the plasma concentration-time curve, extrapolated to infinity (AUCinf) obtained following each PO dose by the mean dose normalized AUCinf of the animals dosed by IV injection. All PK parameters are presented as mean±standard deviation (SD).
Pharmacokinetic studies were conducted in rat for exemplary compounds of Formula (I).

[7] = Jurkat cells, anti-CD3 stimulation
[8] = plasma, PO 2 mg/kg, MCT, Suspension

Sequence of HPK full length, T165E S171E (Q92918 whole entry T165E/S171E, looked up): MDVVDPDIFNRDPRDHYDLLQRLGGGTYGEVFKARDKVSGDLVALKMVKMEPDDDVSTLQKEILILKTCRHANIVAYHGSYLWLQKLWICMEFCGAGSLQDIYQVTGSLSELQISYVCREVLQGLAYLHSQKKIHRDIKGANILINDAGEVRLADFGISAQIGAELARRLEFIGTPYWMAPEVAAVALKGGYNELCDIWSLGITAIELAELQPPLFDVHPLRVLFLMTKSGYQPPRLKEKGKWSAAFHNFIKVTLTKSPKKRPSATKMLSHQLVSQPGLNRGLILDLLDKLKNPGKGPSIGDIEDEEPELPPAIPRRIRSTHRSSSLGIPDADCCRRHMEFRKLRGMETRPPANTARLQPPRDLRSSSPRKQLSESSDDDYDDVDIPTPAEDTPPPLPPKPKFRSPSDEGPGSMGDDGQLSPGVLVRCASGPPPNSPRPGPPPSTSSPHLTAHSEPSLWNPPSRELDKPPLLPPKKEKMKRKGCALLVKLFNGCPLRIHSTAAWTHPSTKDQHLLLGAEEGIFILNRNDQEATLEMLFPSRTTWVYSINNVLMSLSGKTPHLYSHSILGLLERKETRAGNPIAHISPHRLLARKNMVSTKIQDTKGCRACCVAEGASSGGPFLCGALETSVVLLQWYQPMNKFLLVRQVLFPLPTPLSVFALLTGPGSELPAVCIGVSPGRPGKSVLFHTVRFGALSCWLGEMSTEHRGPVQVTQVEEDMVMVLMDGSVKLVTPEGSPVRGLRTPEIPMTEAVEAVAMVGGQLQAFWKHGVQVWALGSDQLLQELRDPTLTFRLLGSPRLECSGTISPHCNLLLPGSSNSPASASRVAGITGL

Structure (SMILES)	Ki ([1]; read-out: HPK1 Ki) [nM]	% IL-2 increase relative to untreated cells ([2]; assayed concentration 2.778 μM) [%]	IC50 [3, 7] [nM]	Papp at 2 h, 10 μM [4] [×10⁻⁶ cm/s]	CLhep predicted at 1 μM [5] [mL/min/kg]	IC50 ([3]; Jurkat) [nM]	further results
Cc1c(-c2cc3cc(NC(=O)O[C@H]4COC[C@@H]4C)ncc3c(N)c2F)cnc2c1NCCO2 (single isomer, unassigned) [Compound 441b]	< 0.013	1158	36	15	6.9	–	bioavailability ([6]; plasma, PO 2 mg/kg, 10/90 DMSO/MCT, Solution): 30%
Cc1c(-c2cc3cc(NC(=O)O[C@@H]4COC[C@@H]4F)ncc3c(N)c2F)cnc2c1NCCO2 (single isomer, unassigned) [Compound 477d]	–	–	66	16	5.7	–	Ki ([1]; HPK1 Ki): 0.02 nM; % IL-2 increase relative to untreated cells ([2]; assayed concentration 8.33 μM): 1745%; bioavailability ([6]; plasma, PO 2 mg/kg, 10% DMSO/60% PEG400/30% Water, Solution): 43%
Cc1c(-c2cc3cc(NC(=O)O[C@@H]4CCC[C@H]4C#N)ncc3c(N)c2F)cnc2c1NCCO2 (single isomer, unassigned) [Compound 482a]	< 0.013	737	38	15	11	–	bioavailability ([6]; plasma, PO 5 mg/kg, MCT, pH = 2.5, Suspension): 41%
Cc1c(-c2cc3cc(NC(=O)O[C@H]4CCO[C@H]4C)ncc3c(N)c2F)cnc2c1NCCO2 (single isomer, unassigned) [Compound 510c]	< 0.013	700	–	20	8.7	62	bioavailability [6, 8]: 28%
CO[C@H]1COC[C@@H]1OC(=O)Nc1cc2cc(-c3cnc4c(c3C)NCCO4)c(F)c(N)c2cn1 (single isomer, unassigned) [Compound 546a]	< 0.013	–	62	10	6.5	–	% IL-2 increase relative to untreated cells ([2]; assayed concentration 8.33 μM): 914%; bioavailability ([6]; plasma, PO 5 mg/kg, 10% DMSO/35% PEG400/55% Water, Solution): 22%
CCc1c(-c2cc3cc(NC(=O)O[C@@H]4COC[C@H]4C)ncc3c(N)c2F)cnc2c1NCCO2.Cl (single isomer, unassigned) [Compound 555b, (3S,4R)-4-Methyltetrahydrofuran-3-yl (8-amino-6-(8-ethyl-2,3-dihydro-1H-pyrido[2,3-b][1,4]oxazin-7-yl)-7-fluoroisoquinolin-3-yl)carbamate hydrochloride]	–	–	–	15	–	–	bioavailability ([6]; in vivo, PO 2 mg/kg, 10% DMSO/60% PEG400/30% Water, Solution): 34%
Cc1c(-c2cc3cc(NC(=O)OC4CCOCC4)ncc3c(N)c2F)cnc2c1NCCO2 [Compound 401, Tetrahydropyran-4-yl N-[8-amino-7-fluoro-6-(8-methyl-2,3-dihydro-1H-pyrido[2,3-b][1,4]oxazin-7-yl)-3-isoquinolyl]carbamate]	0.019	–	–	18	9.2	97	bioavailability ([6]; plasma, PO 5 mg/kg, MCT, Suspension): 16%
Cc1c(-c2cc3cc(NC(=O)O[C@@H]4CCOC4)ncc3c(N)c2F)cnc2c1NCCO2 [Compound 403a, (R)-Tetrahydrofuran-3-yl (8-amino-7-fluoro-6-(8-methyl-2,3-dihydro-1H-pyrido[2,3-b][1,4]oxazin-7-yl)isoquinolin-3-yl)carbamate]	–	–	48	10	7.7	–	Ki ([1]; HPK1 Ki): < 0.013 nM; bioavailability ([6]; plasma, PO 5 mg/kg, 10/90 DMSO/MCT, Suspension): 4%
Cc1c(-c2cc3cc(NC(=O)O[C@H]4C[C@H](C#N)C4)ncc3c(N)c2F)cnc2c1NCCO2 [Compound 484b, (1r,3r)-(3-Cyanocyclobutyl) N-[8-amino-7-fluoro-6-(8-methyl-2,3-dihydro-1H-pyrido[2,3-b][1,4]oxazin-7-yl)-3-isoquinolyl]carbamate]	0.015	1782	26	19	7.9	–	bioavailability ([6]; plasma, PO 5 mg/kg, 10% DMSO/60% PEG400/30% Water, Solution): 16%
CNc1cncc(-c2cc3cc(NC(=O)OC4CC(C)(O)C4)ncc3c(N)c2F)c1C (centres unmarked) [Compound 527, 3-Hydroxy-3-methylcyclobutyl(8-amino-7-fluoro-6-(4-methyl-5-(methylamino)pyridin-3-yl)isoquinolin-3-yl)carbamate]	–	738	–	13	11	64	bioavailability [6, 8]: 12%
